Data set [1] concerns the target T1, NaV1.6 (Homo sapiens (Human), UniProt Q9UQD0). As to the kind of experiment: Sodium Influx Assay (Flux), NaV1.6.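 Further: Tetracycline-induced cells, compounds applied for one hour at room temperature with modulators holding channels open, IC50 from percent inhibition of sodium influx.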 The data set is classed as cell-based. To be noted: Trex HEK293 cells, ANG2 dye, inactivated state.
Data set [2] deals with T1, NaV1.6. As to the kind of experiment: Electrophysiological Assay (EP), patch voltage clamp, NaV1.6.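 Further: sodium current recorded at ambient temperature, channels held inactivated then briefly repolarized to −150 mV for 20 ms before a test pulse, control currents in 0.5% DMSO.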 Format: cell-based. To be noted: HEK-293 cells, whole-cell patch clamp. Background: Patch clamp records ionic current or voltage across a cell membrane.
Data set [3] has as its target T2, NaV1.5 (Homo sapiens (Human), UniProt Q14524). As to the kind of experiment: Electrophysiological Assay (EP), patch voltage clamp, NaV1.5. Format: cell-based. To be noted: HEK-293 cells, whole-cell patch clamp.
Data set [4] addresses T3, NaV1.1 (Homo sapiens (Human), UniProt P35498). As to the kind of experiment: Sodium Influx Assay (Flux), NaV1.1.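 Further: channels co-expressed with human β1 subunit and held open by modulators, cells exposed to compounds for one hour at room temperature, IC50 from percent inhibition of influx.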 Format: cell-based. To be noted: Trex HEK293 cells, ANG2 dye, inactivated state.
Data set [5] deals with T2, NaV1.5. As to the kind of experiment: Sodium Influx Assay (Flux), NaV1.5.
For data set [6], the target named is T3, NaV1.1. As to the kind of experiment: Electrophysiological Assay (EP), patch voltage clamp, NaV1.1.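 Further: sodium current block measured at ambient temperature, holding at fully inactivating potential, 20 ms repolarization to −150 mV before test pulse, versus 0.5% DMSO control currents.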 The data set is classed as cell-based. To be noted: HEK-293 cells, whole-cell patch clamp.
[7] abbreviates: read-out: Flux NaV1.5 IC50, Trex HEK293 cells, ANG2 dye, inactivated state.

Molecules are shown by their SMILES. Structures can show the parent of a compound that is named as a salt.

T2 sequence (Q14524 other isoform, or with tags, fused parts or gaps): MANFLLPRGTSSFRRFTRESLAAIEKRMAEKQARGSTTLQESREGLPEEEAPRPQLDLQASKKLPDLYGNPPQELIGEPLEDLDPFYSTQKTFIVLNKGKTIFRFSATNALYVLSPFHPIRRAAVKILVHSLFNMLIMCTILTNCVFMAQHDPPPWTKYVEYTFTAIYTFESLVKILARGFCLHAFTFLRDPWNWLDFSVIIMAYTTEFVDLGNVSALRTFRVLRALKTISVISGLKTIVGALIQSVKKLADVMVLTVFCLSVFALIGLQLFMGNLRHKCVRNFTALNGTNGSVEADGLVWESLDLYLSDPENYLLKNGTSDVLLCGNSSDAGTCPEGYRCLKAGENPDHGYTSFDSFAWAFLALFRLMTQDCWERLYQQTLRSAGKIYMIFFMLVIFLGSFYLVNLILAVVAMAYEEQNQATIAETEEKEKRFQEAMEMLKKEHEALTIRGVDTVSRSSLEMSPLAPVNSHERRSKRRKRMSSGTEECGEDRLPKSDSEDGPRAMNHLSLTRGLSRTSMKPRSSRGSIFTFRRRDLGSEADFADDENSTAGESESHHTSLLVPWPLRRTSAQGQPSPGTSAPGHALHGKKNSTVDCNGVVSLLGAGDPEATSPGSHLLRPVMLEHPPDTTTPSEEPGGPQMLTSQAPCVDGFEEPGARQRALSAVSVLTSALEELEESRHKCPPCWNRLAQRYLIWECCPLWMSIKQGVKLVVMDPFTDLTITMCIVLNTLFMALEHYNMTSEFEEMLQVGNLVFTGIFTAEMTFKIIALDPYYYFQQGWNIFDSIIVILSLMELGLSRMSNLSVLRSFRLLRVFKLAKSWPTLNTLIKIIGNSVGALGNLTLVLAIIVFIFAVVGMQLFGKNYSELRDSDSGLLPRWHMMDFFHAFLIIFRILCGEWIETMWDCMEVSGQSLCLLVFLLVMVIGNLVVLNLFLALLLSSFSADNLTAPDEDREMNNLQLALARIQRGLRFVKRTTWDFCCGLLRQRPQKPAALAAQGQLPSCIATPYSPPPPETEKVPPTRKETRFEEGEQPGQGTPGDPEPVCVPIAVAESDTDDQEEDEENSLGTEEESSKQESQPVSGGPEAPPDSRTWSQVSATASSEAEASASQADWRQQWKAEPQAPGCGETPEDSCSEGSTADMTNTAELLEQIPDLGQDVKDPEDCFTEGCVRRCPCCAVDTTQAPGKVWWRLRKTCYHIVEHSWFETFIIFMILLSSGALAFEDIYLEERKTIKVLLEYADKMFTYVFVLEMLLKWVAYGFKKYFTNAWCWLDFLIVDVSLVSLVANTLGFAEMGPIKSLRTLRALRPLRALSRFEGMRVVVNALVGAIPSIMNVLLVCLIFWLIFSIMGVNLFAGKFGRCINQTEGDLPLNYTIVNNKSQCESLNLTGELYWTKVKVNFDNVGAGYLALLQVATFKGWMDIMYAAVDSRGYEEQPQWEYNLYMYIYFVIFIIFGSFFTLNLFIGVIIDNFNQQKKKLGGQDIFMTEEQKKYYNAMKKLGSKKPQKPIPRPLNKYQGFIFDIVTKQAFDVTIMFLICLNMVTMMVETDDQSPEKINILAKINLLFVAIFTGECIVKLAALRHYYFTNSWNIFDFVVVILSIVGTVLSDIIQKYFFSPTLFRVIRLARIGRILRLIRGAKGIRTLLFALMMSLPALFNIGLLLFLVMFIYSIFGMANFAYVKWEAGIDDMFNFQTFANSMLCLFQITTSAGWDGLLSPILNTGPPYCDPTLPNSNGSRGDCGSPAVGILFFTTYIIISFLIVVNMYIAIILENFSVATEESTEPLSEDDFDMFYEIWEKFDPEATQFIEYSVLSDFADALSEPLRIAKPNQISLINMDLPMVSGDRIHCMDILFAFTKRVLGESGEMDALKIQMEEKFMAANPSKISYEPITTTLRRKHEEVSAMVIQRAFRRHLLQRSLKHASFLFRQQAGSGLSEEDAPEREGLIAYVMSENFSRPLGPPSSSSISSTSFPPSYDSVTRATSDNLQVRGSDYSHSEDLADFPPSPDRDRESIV
T1 sequence (Q9UQD0 whole entry): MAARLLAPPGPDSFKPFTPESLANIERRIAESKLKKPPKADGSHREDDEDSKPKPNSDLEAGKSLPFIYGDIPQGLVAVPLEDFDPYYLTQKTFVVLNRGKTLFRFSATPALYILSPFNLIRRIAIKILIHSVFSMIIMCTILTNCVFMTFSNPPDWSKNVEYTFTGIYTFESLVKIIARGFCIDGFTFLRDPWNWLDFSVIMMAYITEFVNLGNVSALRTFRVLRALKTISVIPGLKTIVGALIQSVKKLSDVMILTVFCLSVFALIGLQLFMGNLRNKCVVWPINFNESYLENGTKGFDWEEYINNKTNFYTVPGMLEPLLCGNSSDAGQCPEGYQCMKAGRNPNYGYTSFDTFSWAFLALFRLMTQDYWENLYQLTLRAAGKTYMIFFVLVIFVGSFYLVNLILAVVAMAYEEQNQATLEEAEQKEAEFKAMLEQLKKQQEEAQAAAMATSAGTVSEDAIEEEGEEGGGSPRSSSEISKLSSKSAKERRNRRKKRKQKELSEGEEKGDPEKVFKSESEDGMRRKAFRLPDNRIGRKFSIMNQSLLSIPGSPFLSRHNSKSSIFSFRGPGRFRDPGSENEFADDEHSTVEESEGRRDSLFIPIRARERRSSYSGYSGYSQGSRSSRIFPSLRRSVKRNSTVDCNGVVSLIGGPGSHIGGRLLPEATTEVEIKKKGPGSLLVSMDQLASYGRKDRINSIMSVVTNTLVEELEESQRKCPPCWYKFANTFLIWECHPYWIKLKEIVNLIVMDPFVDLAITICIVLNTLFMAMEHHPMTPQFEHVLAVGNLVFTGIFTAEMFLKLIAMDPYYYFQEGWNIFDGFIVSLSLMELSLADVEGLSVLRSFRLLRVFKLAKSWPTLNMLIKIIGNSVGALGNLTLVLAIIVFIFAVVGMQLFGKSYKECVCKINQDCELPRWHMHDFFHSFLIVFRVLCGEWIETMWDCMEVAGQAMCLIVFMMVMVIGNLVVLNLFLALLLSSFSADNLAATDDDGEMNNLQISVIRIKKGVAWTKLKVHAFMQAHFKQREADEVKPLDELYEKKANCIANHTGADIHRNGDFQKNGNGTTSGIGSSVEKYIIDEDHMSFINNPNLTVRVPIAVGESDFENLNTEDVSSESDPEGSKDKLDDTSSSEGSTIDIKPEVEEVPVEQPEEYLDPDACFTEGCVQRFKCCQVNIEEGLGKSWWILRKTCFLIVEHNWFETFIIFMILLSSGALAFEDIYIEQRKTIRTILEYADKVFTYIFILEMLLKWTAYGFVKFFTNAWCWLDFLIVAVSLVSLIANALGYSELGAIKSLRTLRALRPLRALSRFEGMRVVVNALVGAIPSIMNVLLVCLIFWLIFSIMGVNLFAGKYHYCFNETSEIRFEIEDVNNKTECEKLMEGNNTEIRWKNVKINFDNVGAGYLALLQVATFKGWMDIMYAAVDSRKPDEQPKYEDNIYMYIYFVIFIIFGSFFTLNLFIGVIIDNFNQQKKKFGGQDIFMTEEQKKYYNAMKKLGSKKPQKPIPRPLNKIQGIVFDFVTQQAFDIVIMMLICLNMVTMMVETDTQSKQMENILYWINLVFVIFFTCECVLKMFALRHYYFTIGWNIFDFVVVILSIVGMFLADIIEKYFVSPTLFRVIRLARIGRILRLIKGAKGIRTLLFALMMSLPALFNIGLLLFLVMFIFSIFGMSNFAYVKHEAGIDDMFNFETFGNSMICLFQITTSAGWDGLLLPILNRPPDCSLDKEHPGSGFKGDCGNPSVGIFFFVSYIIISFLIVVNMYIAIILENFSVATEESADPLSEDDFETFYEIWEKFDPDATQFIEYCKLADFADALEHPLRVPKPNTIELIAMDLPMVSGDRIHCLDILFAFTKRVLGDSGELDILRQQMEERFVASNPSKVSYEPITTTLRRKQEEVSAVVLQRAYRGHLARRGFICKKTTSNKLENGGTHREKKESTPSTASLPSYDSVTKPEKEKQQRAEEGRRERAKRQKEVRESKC

In general, IC50 refers to the midpoint of a concentration-inhibition curve. Regarding `CCC(Nc1ccc(S(=O)(=O)Nc2ncns2)cc1Cl)c1ccccc1` (centres unmarked) [Example 139, 3-chloro-4-(1-phenylpropylamino)-N-(1,2,4-thiadiazol-5-yl)benzenesulfonamide], the IC50 was 107 nM on NaV1.6 [1]; 38 nM at NaV1.6 [2]; at least 30000 nM at NaV1.5 [3]; 1290 nM against NaV1.1 [4]; 12900 nM against NaV1.5 [5].
In the case of `CC[C@H](Nc1cc(F)c(S(=O)(=O)Nc2ncc(F)s2)cc1Cl)c1ccccc1` [Example 265, (S)-5-chloro-2-fluoro-N-(5-fluorothiazol-2-yl)-4-((1-phenylpropyl)amino)benzenesulfonamide], the IC50 against NaV1.6 [1] was determined as 194 nM; against NaV1.6 [2], 18 nM; against NaV1.1 [4] it was 794 nM; at NaV1.1 [6], 50 nM; on NaV1.5 [5] (setting [7]), 12500 nM.
The matching figures for `C[C@H](Nc1cc(F)c(S(=O)(=O)Nc2ncc(F)s2)cc1Cl)c1ccccc1F` [Example 266, (S)-5-chloro-2-fluoro-4-((1-(2-fluorophenyl)ethyl)amino)-N-(5-fluorothiazol-2-yl)benzenesulfonamide]: 117 nM, 15 nM, 767 nM, 133 nM and 5440 nM.
The matching figures for `C[C@H](Nc1cc(F)c(S(=O)(=O)Nc2nccs2)cc1Cl)c1cc(F)ccc1F` [Example 268, (S)-5-chloro-4-((1-(2,5-difluorophenyl)ethyl)amino)-2-fluoro-N-(thiazol-2-yl)benzenesulfonamide]: 35 nM, 10 nM, 388 nM, 332 nM and 3680 nM.
The matching figures for `O=S(=O)(Nc1ccncn1)c1cc(Cl)c(N[C@H](c2cc(Cl)ccc2F)C(F)(F)F)cc1F` [Example 270, (R)-5-chloro-4-((1-(5-chloro-2-fluorophenyl)-2,2,2-trifluoroethyl)amino)-2-fluoro-N-(pyrimidin-4-yl)benzenesulfonamide]: 213 nM, 18 nM, 12500 nM, 10000 nM and 11000 nM.
As for `C[C@H](Nc1ccc(S(=O)(=O)Nc2ccncn2)cc1C(F)(F)F)c1cc(F)ccc1F` [Example 273, (S)-4-((1-(2,5-difluorophenyl)ethyl)amino)-N-(pyrimidin-4-yl)-3-(trifluoromethyl)benzenesulfonamide], the half-inhibitory concentration (IC50) on NaV1.6 [1] is 896 nM; against NaV1.6 [2], 122 nM; at NaV1.1 [4], 30000 nM; against NaV1.1 [6], 10000 nM; at NaV1.5 [5] (setting [7]), 30000 nM.
As to `Cc1cc(S(=O)(=O)Nc2ccncn2)c(F)cc1N[C@@H](C)c1cc(Cl)ccc1F` [Example 275, (S)-4-((1-(5-chloro-2-fluorophenyl)ethyl)amino)-2-fluoro-5-methyl-N-(pyrimidin-4-yl)benzenesulfonamide], the IC50 on NaV1.6 [1] came to 174 nM; on NaV1.6 [2], 25 nM; against NaV1.1 [4], 5330 nM; against NaV1.1 [6] it was 4850 nM; on NaV1.5 [5] (setting [7]), 30000 nM.
In the same order, the values of `C[C@H](Nc1cc(F)c(S(=O)(=O)Nc2ncco2)cc1Cl)c1cc(F)ccc1F` [Example 287, (S)-5-Chloro-4-((1-(2,5-difluorophenyl)ethyl)amino)-2-fluoro-N-(oxazol-2-yl)benzenesulfonamide] are 1530 nM, 470 nM, 25200 nM, 10000 nM and 30000 nM.
The matching figures for `O=S(=O)(Nc1cscn1)c1cc(Cl)c(NCc2c(F)ccc(F)c2CN2CCC2)cc1F` [Example 288, 4-((2-(Azetidin-1-ylmethyl)-3,6-difluorobenzyl)amino)-5-chloro-2-fluoro-N-(thiazol-4-yl)benzenesulfonamide hydrochloride]: 180 nM, 36 nM, 11800 nM, 10000 nM and 17900 nM.
In the same order, the values of `O=S(=O)(Nc1cscn1)c1c(F)cc(NCc2c(Cl)cccc2CN2CCC2)cc1F` [Example 290, 4-((2-(azetidin-1-ylmethyl)-6-chlorobenzyl)amino)-2,6-difluoro-N-(thiazol-4-yl)benzenesulfonamide 2,2,2-trifluoroacetate] are 101 nM, 11 nM, 6020 nM, 10000 nM and 25100 nM.
`O=S(=O)(Nc1cscn1)c1cc(Cl)c(NCc2c(F)ccc(F)c2CO)cc1F` [Example 293, 5-Chloro-4-((3,6-difluoro-2-(hydroxymethyl)benzyl)amino)-2-fluoro-N-(thiazol-4-yl)benzenesulfonamide]: the IC50 against NaV1.6 [1] turned out to be 426 nM; on NaV1.6 [2], 202 nM; at NaV1.1 [4] it was 12700 nM; against NaV1.1 [6], 10000 nM; at NaV1.5 [5] (setting [7]) it was 30000 nM.
In the same order, the values of `O=S(=O)(Nc1cscn1)c1c(F)cc(NCc2c(Cl)cccc2CN2CC3(COC3)C2)cc1F` [Example 295, 4-((2-((2-oxa-6-azaspiro[3.3]heptan-6-yl)methyl)-6-chlorobenzyl)amino)-2,6-difluoro-N-(thiazol-4-yl)benzenesulfonamide formate] are 383 nM, 42 nM, 12100 nM, 10000 nM and 30000 nM.
For `CC[C@H](Nc1cc(F)c(S(=O)(=O)Nc2cccc(F)n2)cc1Cl)c1ccccc1F` [Example 316, (S)-5-chloro-2-fluoro-4-((1-(2-fluorophenyl)propyl)amino)-N-(6-fluoropyridin-2-yl)benzenesulfonamide], the half-maximal inhibitory concentration (IC50) against NaV1.6 [1] was 961 nM; on NaV1.6 [2], 264 nM; at NaV1.1 [4] it was 2500 nM; against NaV1.1 [6], 5650 nM; at NaV1.5 [5] (setting [7]), 5860 nM.
`CN1CC(Oc2cccc(F)c2CNc2cc(F)c(S(=O)(=O)Nc3cscn3)c(F)c2)C1` [Example 326, 2,6-difluoro-4-((2-fluoro-6-((1-methylazetidin-3-yl)oxy)benzyl)amino)-N-(thiazol-4-yl)benzenesulfonamide formate]: the half-maximal inhibitory concentration (IC50) against NaV1.6 [1] came out at 125 nM; against NaV1.6 [2] it was 90 nM; against NaV1.1 [4], 7860 nM; at NaV1.1 [6], 10000 nM; on NaV1.5 [5] (setting [7]), 12700 nM.
The matching figures for `O=S(=O)(Nc1cccnn1)c1c(F)cc(NCc2c(F)cccc2CN2CCC2)cc1F` [Example 333, 4-((2-(azetidin-1-ylmethyl)-6-fluorobenzyl)amino)-2,6-difluoro-N-(pyridazin-3-yl)benzenesulfonamide formate]: 257 nM, 186 nM, 30000 nM, 10000 nM and 30000 nM.
In the same order, the values of `O=S(=O)(Nc1cscn1)c1cc(Cl)c(N[C@H](c2cc(F)ccc2F)C(F)F)cc1F` [Example 335, (R)-5-chloro-4-((1-(2,5-difluorophenyl)-2,2-difluoroethyl)amino)-2-fluoro-N-(thiazol-4-yl)benzenesulfonamide] are 385 nM, 85 nM, 4800 nM, 10000 nM and 21200 nM.
